Measurements taken from the CheMixHub viscosity set.

Experiment: xn = mol fraction of the nth substance listed

C1CCC2CCCCC2C1 (configuration not stated) + C1CCCCC1
298.15 K, 101 kPa
Conditions | viscosity [mPa·s]
x1 = 0.1473 | 1.061
x1 = 0.3151 | 1.26
x1 = 0.5054 | 1.48
x1 = 0.7334 | 1.77

CCCCCCCC + C1CCCCC1
Conditions | viscosity [mPa·s]
298.15 K, 100 kPa, x2 = 0.2 | 0.5398
298.15 K, 100 kPa, x2 = 0.4 | 0.5777
298.15 K, 100 kPa, x2 = 0.6 | 0.6273
298.15 K, 100 kPa, x2 = 0.8 | 0.7162
298.15 K, 101.33 kPa, x2 = 0.0972 | 0.516
298.15 K, 101.33 kPa, x2 = 0.1084 | 0.5318
298.15 K, 101.33 kPa, x2 = 0.2042 | 0.53
298.15 K, 101.33 kPa, x2 = 0.2223 | 0.549
298.15 K, 101.33 kPa, x2 = 0.3014 | 0.548
298.15 K, 101.33 kPa, x2 = 0.3199 | 0.569
298.15 K, 101.33 kPa, x2 = 0.4044 | 0.568
298.15 K, 101.33 kPa, x2 = 0.412 | 0.5851
298.15 K, 101.33 kPa, x2 = 0.5009 | 0.607
298.15 K, 101.33 kPa, x2 = 0.5017 | 0.591
298.15 K, 101.33 kPa, x2 = 0.5763 | 0.628
298.15 K, 101.33 kPa, x2 = 0.6029 | 0.62
298.15 K, 101.33 kPa, x2 = 0.6597 | 0.6568
298.15 K, 101.33 kPa, x2 = 0.7041 | 0.661
298.15 K, 101.33 kPa, x2 = 0.7236 | 0.6788
298.15 K, 101.33 kPa, x2 = 0.7926 | 0.7148
298.15 K, 101.33 kPa, x2 = 0.8014 | 0.705
298.15 K, 101.33 kPa, x2 = 0.8586 | 0.8162
298.15 K, 101.33 kPa, x2 = 0.8971 | 0.774
298.15 K, 101.33 kPa, x2 = 0.9173 | 0.8737
298.15 K, 101.33 kPa, x2 = 0.9767 | 0.8737
303.15 K, 101 kPa, x2 = 0.1031 | 0.4956
303.15 K, 101 kPa, x2 = 0.1978 | 0.51
303.15 K, 101 kPa, x2 = 0.2979 | 0.5238
303.15 K, 101 kPa, x2 = 0.4018 | 0.5434
303.15 K, 101 kPa, x2 = 0.4842 | 0.5614
303.15 K, 101 kPa, x2 = 0.7004 | 0.6348
303.15 K, 101 kPa, x2 = 0.8984 | 0.7473
303.15 K, 101.33 kPa, x2 = 0.0972 | 0.487
303.15 K, 101.33 kPa, x2 = 0.2042 | 0.498
303.15 K, 101.33 kPa, x2 = 0.3014 | 0.515
303.15 K, 101.33 kPa, x2 = 0.4044 | 0.533
303.15 K, 101.33 kPa, x2 = 0.5017 | 0.554
303.15 K, 101.33 kPa, x2 = 0.6029 | 0.581
303.15 K, 101.33 kPa, x2 = 0.7041 | 0.614
303.15 K, 101.33 kPa, x2 = 0.8014 | 0.656
303.15 K, 101.33 kPa, x2 = 0.8971 | 0.717
308.15 K, 101.33 kPa, x2 = 0.0972 | 0.459
308.15 K, 101.33 kPa, x2 = 0.2042 | 0.469
308.15 K, 101.33 kPa, x2 = 0.3014 | 0.483
308.15 K, 101.33 kPa, x2 = 0.4044 | 0.501
308.15 K, 101.33 kPa, x2 = 0.5017 | 0.518
308.15 K, 101.33 kPa, x2 = 0.6029 | 0.543
308.15 K, 101.33 kPa, x2 = 0.7041 | 0.573
308.15 K, 101.33 kPa, x2 = 0.8014 | 0.608
308.15 K, 101.33 kPa, x2 = 0.8971 | 0.664
323.15 K, 100 kPa, x2 = 0.2 | 0.4103
323.15 K, 100 kPa, x2 = 0.4 | 0.4326
323.15 K, 100 kPa, x2 = 0.6 | 0.4655
323.15 K, 100 kPa, x2 = 0.8 | 0.5138

CCCCCCCCCCCCCC + C1CCCCC1
298.15 K, 101.33 kPa
Conditions | viscosity [mPa·s]
x1 = 0.0144 | 0.9238
x2 = 0.1743 | 1.907
x2 = 0.3074 | 1.756
x2 = 0.4253 | 1.621
x2 = 0.5304 | 1.486
x2 = 0.6125 | 1.384
x2 = 0.6841 | 1.291
x2 = 0.7505 | 1.207
x2 = 0.8066 | 1.131
x2 = 0.8651 | 1.064
x2 = 0.9088 | 1.01
x2 = 0.9483 | 0.9646

CCCCCO + C1CCCCC1
Conditions | viscosity [mPa·s]
293.15 K, 100 kPa, x2 = 0.0815 | 3.56
293.15 K, 100 kPa, x2 = 0.1623 | 3.17
293.15 K, 100 kPa, x2 = 0.2416 | 2.81
293.15 K, 100 kPa, x2 = 0.3481 | 2.37
293.15 K, 100 kPa, x2 = 0.4401 | 2.06
293.15 K, 100 kPa, x2 = 0.5592 | 1.69
293.15 K, 100 kPa, x2 = 0.6501 | 1.46
293.15 K, 100 kPa, x2 = 0.7414 | 1.28
293.15 K, 100 kPa, x2 = 0.8502 | 1.1
293.15 K, 100 kPa, x2 = 0.9414 | 1.02
298.15 K, 101 kPa, x1 = 0.0229 | 0.889
298.15 K, 101 kPa, x1 = 0.0543 | 0.908
298.15 K, 101 kPa, x1 = 0.14 | 0.991
298.15 K, 101 kPa, x1 = 0.2319 | 1.064
298.15 K, 101 kPa, x1 = 0.3975 | 1.326
298.15 K, 101 kPa, x1 = 0.5045 | 1.548
298.15 K, 101 kPa, x1 = 0.6384 | 1.974
298.15 K, 101 kPa, x1 = 0.7129 | 2.264
298.15 K, 101 kPa, x1 = 0.8283 | 2.738
298.15 K, 101 kPa, x1 = 0.904 | 3.066
303.15 K, 100 kPa, x2 = 0.0815 | 2.7
303.15 K, 100 kPa, x2 = 0.1623 | 2.41
303.15 K, 100 kPa, x2 = 0.2416 | 2.15
303.15 K, 100 kPa, x2 = 0.3481 | 1.84
303.15 K, 100 kPa, x2 = 0.4401 | 1.61
303.15 K, 100 kPa, x2 = 0.5592 | 1.34
303.15 K, 100 kPa, x2 = 0.6501 | 1.18
303.15 K, 100 kPa, x2 = 0.7414 | 1.05
303.15 K, 100 kPa, x2 = 0.8502 | 0.92
303.15 K, 100 kPa, x2 = 0.9414 | 0.85
303.15 K, 101 kPa, x1 = 0.6491 | 1.531
303.15 K, 101.33 kPa, x1 = 0.0977 | 0.8877
303.15 K, 101.33 kPa, x1 = 0.2165 | 0.9922
303.15 K, 101.33 kPa, x1 = 0.3008 | 1.095
303.15 K, 101.33 kPa, x1 = 0.4012 | 1.222
303.15 K, 101.33 kPa, x1 = 0.5004 | 1.388
303.15 K, 101.33 kPa, x1 = 0.6025 | 1.586
303.15 K, 101.33 kPa, x1 = 0.7049 | 1.823
303.15 K, 101.33 kPa, x1 = 0.7922 | 2.076
303.15 K, 101.33 kPa, x1 = 0.9023 | 2.447
308.15 K, 101 kPa, x1 = 0.0229 | 0.757
308.15 K, 101 kPa, x1 = 0.0543 | 0.772
308.15 K, 101 kPa, x1 = 0.14 | 0.822
308.15 K, 101 kPa, x1 = 0.2319 | 0.894
308.15 K, 101 kPa, x1 = 0.3975 | 1.078
308.15 K, 101 kPa, x1 = 0.5045 | 1.248
308.15 K, 101 kPa, x1 = 0.6384 | 1.537
308.15 K, 101 kPa, x1 = 0.6491 | 1.452
308.15 K, 101 kPa, x1 = 0.7129 | 1.732
308.15 K, 101 kPa, x1 = 0.8283 | 2.09
308.15 K, 101 kPa, x1 = 0.904 | 2.335
313.15 K, 100 kPa, x2 = 0.0815 | 2.08
313.15 K, 100 kPa, x2 = 0.1623 | 1.88
313.15 K, 100 kPa, x2 = 0.2416 | 1.7
313.15 K, 100 kPa, x2 = 0.3481 | 1.47
313.15 K, 100 kPa, x2 = 0.4401 | 1.3
313.15 K, 100 kPa, x2 = 0.5592 | 1.11
313.15 K, 100 kPa, x2 = 0.6501 | 0.98
313.15 K, 100 kPa, x2 = 0.7414 | 0.88
313.15 K, 100 kPa, x2 = 0.8502 | 0.78
313.15 K, 100 kPa, x2 = 0.9414 | 0.72
313.15 K, 101 kPa, x1 = 0.6491 | 1.327
318.15 K, 101 kPa, x1 = 0.0229 | 0.649
318.15 K, 101 kPa, x1 = 0.0543 | 0.658
318.15 K, 101 kPa, x1 = 0.14 | 0.694
318.15 K, 101 kPa, x1 = 0.2319 | 0.758
318.15 K, 101 kPa, x1 = 0.3975 | 0.883
318.15 K, 101 kPa, x1 = 0.5045 | 1.01
318.15 K, 101 kPa, x1 = 0.6384 | 1.227
318.15 K, 101 kPa, x1 = 0.7129 | 1.364
318.15 K, 101 kPa, x1 = 0.8283 | 1.628
318.15 K, 101 kPa, x1 = 0.904 | 1.802
323.15 K, 100 kPa, x2 = 0.0815 | 1.64
323.15 K, 100 kPa, x2 = 0.1623 | 1.49
323.15 K, 100 kPa, x2 = 0.2416 | 1.36
323.15 K, 100 kPa, x2 = 0.3481 | 1.2
323.15 K, 100 kPa, x2 = 0.4401 | 1.08
323.15 K, 100 kPa, x2 = 0.5592 | 0.94
323.15 K, 100 kPa, x2 = 0.6501 | 0.85
323.15 K, 100 kPa, x2 = 0.7414 | 0.77
323.15 K, 100 kPa, x2 = 0.8502 | 0.69
323.15 K, 100 kPa, x2 = 0.9414 | 0.63
